Assay results reported in patent publication US20050059710A1, “Diphenylamino ketone derivatives as MEK inhibitors” (Pfizer Inc, priority 2003, published 2005).

Columns and labels:
[1] = test system: MEK; assay: Cellular assay for MEK inhibition: ERK phosphorylation in C26 cells (C26CPA1); assay type: cell-based; details: inhibition of ERK phosphorylation, murine colon 26 (C26) carcinoma cells, one hour at 37° C.
Protocol: (§1) Cellular Assay for Measuring MEK Inhibition
(§2) MEK inhibitors were evaluated by determining their ability to inhibit phosphorylation of MAP kinase (ERK) in murine colon 26 (C26) carcinoma cells. Since ERK1 and ERK2 represent the only known substrates for MEK1and MEK2, the measurement of inhibition of ERK phosphorylation in cells provides direct read out of cellular MEK inhibition by the compounds of the invention. Detection of phosphorylation of ERK was carried out either by Western blot or ELISA format. Briefly, the assays involve treatment of exponentially growing C26 cells with varying concentrations of the test compound (or vehicle control) for one hour at 37° C. For Western blot assay, cells were rinsed free of compound/vehicle and lysed in a solution containing 70 mM NaCl, 50 mM glycerol phosphate, 10 mM HEPES, pH 7.4, 1% Triton X-100, 1 mM Na3VO4, 100 μM PMSF, 10 μM leupeptin and 10 μM pepstatin. Supernatants were then subjected to gel electrophoresis and hybridized to a primary antibody recognizing dually phosphorylated ERK1 and ERK2. To evaluate total MAPK levels, blots were subsequently ‘stripped’ and re-probed with a 1:1 mixture of polyclonal antibodies recognizing unphosphorylated ERK1 and ERK2. For pERK ELISA assay, pERK TiterZyme Enzyme immunometric Assay kits were acquired from Assay Designs, Inc (Ann Arbor, Mich.). […]

[2] = test system: MEK; assay: Cellular assay for MEK inhibition: ERK phosphorylation in C26 cells, pERK ELISA format (C26ELSA); assay type: cell-based; details: inhibition of ERK phosphorylation, murine colon 26 (C26) carcinoma cells, one hour at 37° C.
Protocol: as §1, §2

Row | IC50 [1] [nM] | melting point [°C] | IC50 [2] [nM] | Structure (SMILES)
1 | 287 | 127 |  | Cc1coc(C(=O)c2ccc(F)c(F)c2Nc2ccc(I)cc2F)n1 [Example 5, [3,4-Difluoro-2-(2-fluoro-4-iodo-phenylamino)-phenyl]-(4-methyl-oxazol-2-yl)-methanone]
2 |  | 166 |  | C#Cc1ccc(Nc2c(C(=O)c3nccn3C)ccc(F)c2F)c(F)c1 [Example 4, [2-(4-Ethynyl-2-fluoro-phenylamino)-3,4-difluoro-phenyl]-(1-methyl-1H-imidazol-2-yl)-methanone]
3 |  | 109 to 111 |  | C#Cc1ccc(Nc2c(C(=O)c3ccccn3)ccc(F)c2F)c(F)c1 [Example 2, [2-(4-Ethynyl-2-fluoro-phenylamino)-3,4-difluoro-phenyl]-pyridin-2-yl-methanone]
4 | 6.5 | 128 to 128.5 | 20 | O=C(CO)c1ccc(F)c(F)c1Nc1ccc(I)cc1F [Example 1, 1-[3,4-Difluoro-2-(2-fluoro-4-iodo-phenylamino)-phenyl]-2-hydroxy-ethanone]
5 |  | 78 to 80 |  | C#Cc1ccc(Nc2c(C(C)=O)ccc(F)c2F)c(F)c1 [Example 10, 1-[2-(4-Ethynyl-2-fluoro-phenylamino)-3,4-difluoro-phenyl]-ethanone]
6 |  | 161 |  | C#Cc1ccc(Nc2c(C(=O)c3nccs3)ccc(F)c2F)c(F)c1 [Example 3, [2-(4-Ethynyl-2-fluoro-phenylamino)-3,4-difluoro-phenyl]-thiazol-2-yl-methanone]
